“Also recorded” adds a separate entry of the source.
Key:
RAW 264.7 cells = experiment: ROS production assay (CellROX, zymosan); assay type: cell-based; settings: 10 μM peptide 9 hours, then Zymosan 50 μg/mL 30 mins
Protocol: ROS production assay. Flow cytometry was used to measure reactive oxygen species (ROS) through fluorescence emission of the CellROX deep red dye (Life Technologies). RAW264.7 cells (ATCC® SC-6003™) were plated at 120,000/well in a 96-well low-adherence tissue culture plate (Costar).

[1] = system: primary cortical neurons overexpressing G2019S-LRRK2; experiment: Neuronal apoptosis in primary cortical neurons expressing G2019S-LRRK2; assay type: cell-based, mouse; settings: 10 μM peptide, 48 h
From the text: Preparation of primary mouse neuronal cultures, and assessment of neuronal death. Embryonic day 16 (E16) pregnant C57BL mice were used in this study, with primary cortical neurons prepared as described (N. Antoniou et al., A motif within the armadillo repeat of Parkinson's-linked LRRK2 interacts with FADD to hijack the extrinsic death pathway. Sci Rep 8, 3455 (2018)). Briefly, under aseptic conditions, cortices were removed and cut into small pieces before enzymatic digestion (trypsin 0.05% and 100 μg/ml DNAse) and mechanical dissociation. Cells were centrifuged and counted and plated at a density of 150,000/cm^2 in BrainPhys neuronal culture medium (StemCell Technologies) supplemented with SM1 Neuronal Supplement (StemCell Technologies), L-glutamine (0.5 mM) and penicillin/[…]. After 3-4 DIV, neurons were transfected using Lipofectamine 2000 (Thermo Scientific) as per the manufacturer's instructions. Neurons were transfected with Flag-tagged WT or mutant (G2019S) human LRRK2 (as described previously). The following day, the treatment of neurons with fluorescently labeled peptides (at 10 μM final concentration) was initiated. The peptides were replenished in the neuronal medium after 24 hours, and the indicated concentrations. […] For quantification of apoptotic neuronal profiles, the approach described previously was used.

[2] = system: LRRK2 (R1441G) kinase activity as Rab10 phosphorylation; experiment: Rab10 pT73 phosphorylation immunoblot, HEK293T with LRRK2 R1441G and Rab29; assay type: cell-based; settings: LRRK2 R1441G + Rab29, 10 μM peptide, 12 h / 15 hours
Protocol: Rab10 Immunoblotting. HEK293T cells were co-transfected at a confluency of 50-60% with Strep-FLAG tagged LRRK2 R1441G and Rab29 as well as Rab10 (both HA-FLAG tagged) using polyethylenimine (PEI, Polyscience) as previously described(46). […] […], cells were lysed in twice, first in lysis buffer (30 mM Tris-HCL (pH7.4), 150 mM NaCl, 0.5% NP-40, complete protease Inhibitor cocktail and phosphatase inhibitor cocktail II & III (Sigma Aldrich) and again after centrifugation in 1% SDS. Cleared lysates were adjusted to 2 μg/μl with 5× Laemmli Buffer and lysis buffer. Samples were used for denaturating electrophoresis using 10% Bis-Tris gels (NuPAGE) and for western blotting onto PVDF membranes. Membranes were blocked with 5% non-fat dry milk dissolved in TBS-T (30 mM Tris-HCL (pH 7.4), 0.1% Tween 20) and separated horizontally at 140 kDa. Primary antibodies were added TBS-T with 5% BSA (pT73 Rab10) 1:2,000 (ab230261) and pS1292 LRRK2 1:2,000 (ab203181)) or total protein antibodies (Rab10(ERP13424) 1:5,000 (ab181367) or LRRK2 (clone 24D8) 1:5,000 (Gloeckner lab)), respectively. Membranes were incubated with HRP-conjugated secondary antibodies diluted in TBS-T with 5% milk prior to imaging using ECL Plus (Pierce) with exposure to photometric films (Hyperfilms, GE Healthcare). […]

GFP-tagged LRRK2 = target: T1, GFP-tagged LRRK2 (Homo sapiens, UniProt Q5S007); experiment: Pulldown of LRRK2 from cell lysate with biotin-labeled peptides; assay type: binding; settings: 10 μM biotin-labeled peptide, lysate of HEK293 cells overexpressing GFP-tagged LRRK2
T1 construct: co-transfecting HEK293 cells with GFP-tagged and strep-tagged full-length LRRK2; expressed in transfected cells; host or cells: HEK293
Protocol: Pulldown experiments. Fresh lysate of HEK293 cells overexpressing GFP-tagged LRRK2 was mixed and incubated with biotin-labeled peptide (added to a final concentration of 10 μM) and incubated at 4° C. overnight. The mixture was then applied to Magnetic Strep-beads (MagStrep ‘Type3’ XT Beads (IBA, Gottingen, Germany)) and the immune complex was washed twice (10 mM Tris/HCl pH 7.5, 150 mM NaCl) and subjected to immunoblot analysis. Samples were separated on 6% Tris-Glycine gels, transferred onto a nitrocellulose membrane (GE Lifesciences), and processed for western analysis. Membranes were blocked in 5% dry milk in Tris-buffered saline plus Tween-20 for 1 hour and probed with rat monoclonal anti-LRRK2 (clone 24D8 1:1000, Gloeckner lab(69)) and incubated overnight at 4° C. with gentle shaking. Membranes were then washed three times for 10 min at room temperature in PBS containing 0.1% or 0.05% Tween-20 and then incubated for 1 hour with anti-rat IgG-HRP (sc-2750, Santa Cruz Biotechnology). Membranes were again washed three times for 10 min at room temperature in PBS containing 0.1% or 0.05 Tween-20. The membranes were coated with enhanced chemiluminescent (ECL) reagent (WesternSure PREMIUM, Li-COR biosciences), and proteins were detected using the C-Digit Imaging System (Li-COR Biosciences). […]

T1 sequence (Q5S007 whole entry): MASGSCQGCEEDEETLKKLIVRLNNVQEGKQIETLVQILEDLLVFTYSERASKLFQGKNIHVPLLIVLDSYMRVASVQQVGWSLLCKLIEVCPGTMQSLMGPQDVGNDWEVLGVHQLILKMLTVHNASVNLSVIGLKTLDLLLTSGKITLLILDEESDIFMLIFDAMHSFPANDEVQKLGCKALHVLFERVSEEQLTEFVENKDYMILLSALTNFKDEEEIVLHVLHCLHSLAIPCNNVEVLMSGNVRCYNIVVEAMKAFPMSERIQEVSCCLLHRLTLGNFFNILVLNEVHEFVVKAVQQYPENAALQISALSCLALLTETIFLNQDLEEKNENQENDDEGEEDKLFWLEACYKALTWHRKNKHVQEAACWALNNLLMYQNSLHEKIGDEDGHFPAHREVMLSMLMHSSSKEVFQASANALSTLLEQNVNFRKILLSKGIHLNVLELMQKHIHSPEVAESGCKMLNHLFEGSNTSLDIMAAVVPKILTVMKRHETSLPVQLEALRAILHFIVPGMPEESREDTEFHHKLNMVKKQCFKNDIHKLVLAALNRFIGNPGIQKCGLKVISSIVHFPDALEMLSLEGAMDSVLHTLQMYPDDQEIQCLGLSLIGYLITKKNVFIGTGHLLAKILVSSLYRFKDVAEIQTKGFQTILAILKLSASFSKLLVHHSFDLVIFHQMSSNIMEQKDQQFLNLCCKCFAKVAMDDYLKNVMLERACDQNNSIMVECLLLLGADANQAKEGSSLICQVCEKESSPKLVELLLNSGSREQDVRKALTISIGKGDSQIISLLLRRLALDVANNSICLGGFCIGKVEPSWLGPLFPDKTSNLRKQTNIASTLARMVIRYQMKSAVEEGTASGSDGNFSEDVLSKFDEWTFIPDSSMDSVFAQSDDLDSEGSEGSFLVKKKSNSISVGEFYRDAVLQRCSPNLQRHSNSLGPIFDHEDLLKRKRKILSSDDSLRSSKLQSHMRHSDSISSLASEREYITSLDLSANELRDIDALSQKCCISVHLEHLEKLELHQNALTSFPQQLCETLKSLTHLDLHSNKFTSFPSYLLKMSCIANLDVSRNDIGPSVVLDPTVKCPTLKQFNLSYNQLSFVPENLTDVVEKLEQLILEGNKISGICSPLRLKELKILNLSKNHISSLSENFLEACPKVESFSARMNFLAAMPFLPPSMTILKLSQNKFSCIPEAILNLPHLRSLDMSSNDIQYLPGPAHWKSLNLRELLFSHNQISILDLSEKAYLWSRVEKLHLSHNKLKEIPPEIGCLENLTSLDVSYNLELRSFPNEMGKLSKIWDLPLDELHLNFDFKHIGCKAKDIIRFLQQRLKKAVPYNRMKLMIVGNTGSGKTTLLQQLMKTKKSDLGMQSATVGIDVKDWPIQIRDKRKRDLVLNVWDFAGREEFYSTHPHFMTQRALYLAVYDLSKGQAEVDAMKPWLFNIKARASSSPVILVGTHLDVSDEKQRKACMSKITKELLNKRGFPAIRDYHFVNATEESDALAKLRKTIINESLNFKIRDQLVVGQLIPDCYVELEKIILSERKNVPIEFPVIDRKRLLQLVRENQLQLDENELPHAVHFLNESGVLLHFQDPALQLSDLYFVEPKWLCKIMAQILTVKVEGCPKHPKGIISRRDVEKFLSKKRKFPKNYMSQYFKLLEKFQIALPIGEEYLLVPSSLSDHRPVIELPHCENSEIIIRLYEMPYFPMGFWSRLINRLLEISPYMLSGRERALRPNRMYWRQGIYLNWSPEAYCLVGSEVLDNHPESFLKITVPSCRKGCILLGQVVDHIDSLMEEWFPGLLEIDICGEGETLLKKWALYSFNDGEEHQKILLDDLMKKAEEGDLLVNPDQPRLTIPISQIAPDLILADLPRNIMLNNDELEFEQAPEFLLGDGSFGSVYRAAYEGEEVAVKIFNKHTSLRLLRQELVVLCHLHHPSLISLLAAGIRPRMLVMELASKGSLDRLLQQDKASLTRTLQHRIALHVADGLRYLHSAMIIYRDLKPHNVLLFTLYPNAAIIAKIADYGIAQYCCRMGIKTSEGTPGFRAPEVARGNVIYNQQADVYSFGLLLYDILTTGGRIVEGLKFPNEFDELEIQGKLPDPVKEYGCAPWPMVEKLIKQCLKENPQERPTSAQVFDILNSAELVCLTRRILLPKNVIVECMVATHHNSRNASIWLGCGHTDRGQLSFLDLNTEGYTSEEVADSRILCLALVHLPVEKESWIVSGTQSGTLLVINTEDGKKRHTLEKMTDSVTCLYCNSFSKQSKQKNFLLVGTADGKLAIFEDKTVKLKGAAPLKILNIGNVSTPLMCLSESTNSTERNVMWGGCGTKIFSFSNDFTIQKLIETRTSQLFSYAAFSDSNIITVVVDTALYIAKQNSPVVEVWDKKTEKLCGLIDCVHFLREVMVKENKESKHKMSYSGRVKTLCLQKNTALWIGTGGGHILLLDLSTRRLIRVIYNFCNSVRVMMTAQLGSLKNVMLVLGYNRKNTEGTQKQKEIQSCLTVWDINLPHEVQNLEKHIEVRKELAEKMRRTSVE
Protocol for HEK293 cells: Flow Cytometry. HEK293 cells were plated in 96-well plates (50 000/well) and allowed to grow 24 h in complete growth medium (DMEM supplemented with 10% fetal bovine serum, L-glutamine). DMEM was carefully aspirated and cells were treated with fresh pre-warmed complete growth medium supplemented with 10 μM of peptide or DMSO. After 6 hours, cells were analyzed on Beckman Cytoflex flow cytometer (Beckman Coulter). Using forward and side scattered light, a gate for intact, non-aggregated cells was defined and the fluorescence of 10,000 events was collected within this cell gate. The fluorescent channel for FITC (488-nm excitation [ex], 525-nm emission [em]) was used. Data was analyzed using FlowJo software and the reported fluorescent intensity values represent arithmetic means of the results determined for the analyzed cells.

Substance	zymosan induced ROS production (RAW 264.7 cells)	neurons undergoing apoptosis [1]	dose dependence of cell uptake by flow cytometry (HEK293 cells)	Rab10 phosphorylation (pT73) [2]	LRRK2 pulled down by biotin-labeled peptide (immunoblot) (GFP-tagged LRRK2)
COR-domain stapled peptide formed from SEQ ID NO. 16 KGEGEXLLKXWK, X = (S)-2-(4′-pentenyl)alanine; PEG3 linker, FAM or biotin label (hydrocarbon staple; PEG3 linker; FAM or biotin; COR domain peptide; (6)..(6) Xaa is (S)-2-(4′-pentenyl)alanine; (10)..(10) Xaa is (S)-2-(4′-pentenyl)alanine) [LCIP1]	no statistically significant consequence	sharp decline in neurons undergoing apoptosis	dose-dependent uptake	reduced Rab10 phosphorylation	successfully bound to LRRK2; also recorded: both peptides bound LRRK2
Roc-domain stapled peptide formed from SEQ ID NO. 6 DEKQRKAC(Nle)SKITKEXLNKX, X = (S)-2-(4′-pentenyl)alanine; PEG3 linker, FAM or biotin label (DEKQRKACXSKITKEXLNKX; hydrocarbon staple; Nle; PEG3 linker; FAM or biotin; ROC domain petide; (9)..(9) Xaa is norleucine; (16)..(16) Xaa is (S)-2-(4′-pentenyl)alanine; (20)..(20) Xaa is (S)-2-(4′-pentenyl)alanine) [LRIP4]	significant reduction of zymosan induced ROS production to an extent comparable to MLi-2	sharp decline in neurons undergoing apoptosis, especially for LRIP4 treated cells	dose-dependent uptake	reduced Rab10 phosphorylation with LRIP4 inducing a more pronounced effect; also recorded: reduced after treatment with LRIP4 or LCIP1, with LRIP4 having a larger inhibitory effect	successfully bound to LRRK2; also recorded: pulled down considerably more LRRK2 as compared to LCIP1; also recorded: both peptides bound LRRK2
